Like-named read-outs stand apart in the source and are kept apart here.

Format in all cases: cell-based
Assay [1] deals with T1, CaV3.1 (Homo sapiens, UniProt O43497).
T1 construct: gene CACNA1G
As to the kind of experiment: patch clamp recording of CaV3.[…] channels, […].

Assay [2] deals with T2, hTRPA1 (Homo sapiens, UniProt O75762).
T2 construct: gene TRPA1
Briefly: calcium fluorescence assay and whole-cell patch clamp in HEK […] cells expressing hTRPA1.

Assay [3] has as its target T3, mTRPA1 (Mus musculus, UniProt Q8BLA8).
T3 construct: gene Trpa1
As to the kind of experiment: calcium fluorescence assay in HEK […] cells expressing mouse TRPA1 ([…]). The note with it: HEK293; read-out: % of CA (300 μM) response at 100 μM.

Assay [4] concerns the target T2, hTRPA1. As to the kind of experiment: calcium fluorescence assay and whole-cell patch clamp in HEK […] cells expressing hTRPA1. The source holds these as a separate data set.
In assay [5] the target is T2, hTRPA1. As to the kind of experiment: calcium fluorescence assay in HEK […] cells expressing hTRPA1 ([…]). To be noted: HEK293; read-out: % increase in [Ca]i at 30 μM.
The target of assay [6] is T2, hTRPA1. The assay is described as above. The note with it: HEK293; read-out: Change in RFU (% Predrug).
Assay [7] concerns the target T2, hTRPA1. The assay is described as above. To be noted: HEK293, read-out: % increase in [Ca]i at 30 μM.

T2 sequence (O75762 whole entry): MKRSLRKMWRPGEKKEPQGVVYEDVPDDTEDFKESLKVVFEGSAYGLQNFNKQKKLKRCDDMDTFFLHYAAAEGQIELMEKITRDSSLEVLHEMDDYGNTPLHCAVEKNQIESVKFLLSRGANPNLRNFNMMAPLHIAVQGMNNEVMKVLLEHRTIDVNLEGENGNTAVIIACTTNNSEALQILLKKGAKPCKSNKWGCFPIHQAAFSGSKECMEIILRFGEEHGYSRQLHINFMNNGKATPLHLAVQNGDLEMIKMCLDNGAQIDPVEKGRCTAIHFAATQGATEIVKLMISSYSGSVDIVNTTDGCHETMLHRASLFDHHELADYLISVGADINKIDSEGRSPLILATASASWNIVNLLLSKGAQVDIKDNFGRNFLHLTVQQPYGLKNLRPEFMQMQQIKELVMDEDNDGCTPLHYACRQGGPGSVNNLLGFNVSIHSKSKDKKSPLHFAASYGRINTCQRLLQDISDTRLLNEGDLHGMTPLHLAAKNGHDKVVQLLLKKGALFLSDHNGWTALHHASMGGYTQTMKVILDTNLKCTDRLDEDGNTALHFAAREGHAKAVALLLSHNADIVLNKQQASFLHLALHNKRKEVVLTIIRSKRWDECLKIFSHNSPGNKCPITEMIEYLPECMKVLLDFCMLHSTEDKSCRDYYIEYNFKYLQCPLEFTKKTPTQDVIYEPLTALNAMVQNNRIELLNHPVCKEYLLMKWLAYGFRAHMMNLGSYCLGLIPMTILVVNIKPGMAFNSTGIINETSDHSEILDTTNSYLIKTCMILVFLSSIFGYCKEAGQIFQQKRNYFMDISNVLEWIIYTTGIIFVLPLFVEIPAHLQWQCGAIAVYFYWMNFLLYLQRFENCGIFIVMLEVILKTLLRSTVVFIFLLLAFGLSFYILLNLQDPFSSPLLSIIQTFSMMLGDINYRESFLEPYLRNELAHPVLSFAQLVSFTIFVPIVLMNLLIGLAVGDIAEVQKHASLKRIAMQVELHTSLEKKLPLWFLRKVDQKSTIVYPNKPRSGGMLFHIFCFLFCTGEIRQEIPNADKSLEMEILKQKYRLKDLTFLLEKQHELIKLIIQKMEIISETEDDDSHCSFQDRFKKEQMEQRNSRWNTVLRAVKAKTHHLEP
T1 sequence (O43497 whole entry): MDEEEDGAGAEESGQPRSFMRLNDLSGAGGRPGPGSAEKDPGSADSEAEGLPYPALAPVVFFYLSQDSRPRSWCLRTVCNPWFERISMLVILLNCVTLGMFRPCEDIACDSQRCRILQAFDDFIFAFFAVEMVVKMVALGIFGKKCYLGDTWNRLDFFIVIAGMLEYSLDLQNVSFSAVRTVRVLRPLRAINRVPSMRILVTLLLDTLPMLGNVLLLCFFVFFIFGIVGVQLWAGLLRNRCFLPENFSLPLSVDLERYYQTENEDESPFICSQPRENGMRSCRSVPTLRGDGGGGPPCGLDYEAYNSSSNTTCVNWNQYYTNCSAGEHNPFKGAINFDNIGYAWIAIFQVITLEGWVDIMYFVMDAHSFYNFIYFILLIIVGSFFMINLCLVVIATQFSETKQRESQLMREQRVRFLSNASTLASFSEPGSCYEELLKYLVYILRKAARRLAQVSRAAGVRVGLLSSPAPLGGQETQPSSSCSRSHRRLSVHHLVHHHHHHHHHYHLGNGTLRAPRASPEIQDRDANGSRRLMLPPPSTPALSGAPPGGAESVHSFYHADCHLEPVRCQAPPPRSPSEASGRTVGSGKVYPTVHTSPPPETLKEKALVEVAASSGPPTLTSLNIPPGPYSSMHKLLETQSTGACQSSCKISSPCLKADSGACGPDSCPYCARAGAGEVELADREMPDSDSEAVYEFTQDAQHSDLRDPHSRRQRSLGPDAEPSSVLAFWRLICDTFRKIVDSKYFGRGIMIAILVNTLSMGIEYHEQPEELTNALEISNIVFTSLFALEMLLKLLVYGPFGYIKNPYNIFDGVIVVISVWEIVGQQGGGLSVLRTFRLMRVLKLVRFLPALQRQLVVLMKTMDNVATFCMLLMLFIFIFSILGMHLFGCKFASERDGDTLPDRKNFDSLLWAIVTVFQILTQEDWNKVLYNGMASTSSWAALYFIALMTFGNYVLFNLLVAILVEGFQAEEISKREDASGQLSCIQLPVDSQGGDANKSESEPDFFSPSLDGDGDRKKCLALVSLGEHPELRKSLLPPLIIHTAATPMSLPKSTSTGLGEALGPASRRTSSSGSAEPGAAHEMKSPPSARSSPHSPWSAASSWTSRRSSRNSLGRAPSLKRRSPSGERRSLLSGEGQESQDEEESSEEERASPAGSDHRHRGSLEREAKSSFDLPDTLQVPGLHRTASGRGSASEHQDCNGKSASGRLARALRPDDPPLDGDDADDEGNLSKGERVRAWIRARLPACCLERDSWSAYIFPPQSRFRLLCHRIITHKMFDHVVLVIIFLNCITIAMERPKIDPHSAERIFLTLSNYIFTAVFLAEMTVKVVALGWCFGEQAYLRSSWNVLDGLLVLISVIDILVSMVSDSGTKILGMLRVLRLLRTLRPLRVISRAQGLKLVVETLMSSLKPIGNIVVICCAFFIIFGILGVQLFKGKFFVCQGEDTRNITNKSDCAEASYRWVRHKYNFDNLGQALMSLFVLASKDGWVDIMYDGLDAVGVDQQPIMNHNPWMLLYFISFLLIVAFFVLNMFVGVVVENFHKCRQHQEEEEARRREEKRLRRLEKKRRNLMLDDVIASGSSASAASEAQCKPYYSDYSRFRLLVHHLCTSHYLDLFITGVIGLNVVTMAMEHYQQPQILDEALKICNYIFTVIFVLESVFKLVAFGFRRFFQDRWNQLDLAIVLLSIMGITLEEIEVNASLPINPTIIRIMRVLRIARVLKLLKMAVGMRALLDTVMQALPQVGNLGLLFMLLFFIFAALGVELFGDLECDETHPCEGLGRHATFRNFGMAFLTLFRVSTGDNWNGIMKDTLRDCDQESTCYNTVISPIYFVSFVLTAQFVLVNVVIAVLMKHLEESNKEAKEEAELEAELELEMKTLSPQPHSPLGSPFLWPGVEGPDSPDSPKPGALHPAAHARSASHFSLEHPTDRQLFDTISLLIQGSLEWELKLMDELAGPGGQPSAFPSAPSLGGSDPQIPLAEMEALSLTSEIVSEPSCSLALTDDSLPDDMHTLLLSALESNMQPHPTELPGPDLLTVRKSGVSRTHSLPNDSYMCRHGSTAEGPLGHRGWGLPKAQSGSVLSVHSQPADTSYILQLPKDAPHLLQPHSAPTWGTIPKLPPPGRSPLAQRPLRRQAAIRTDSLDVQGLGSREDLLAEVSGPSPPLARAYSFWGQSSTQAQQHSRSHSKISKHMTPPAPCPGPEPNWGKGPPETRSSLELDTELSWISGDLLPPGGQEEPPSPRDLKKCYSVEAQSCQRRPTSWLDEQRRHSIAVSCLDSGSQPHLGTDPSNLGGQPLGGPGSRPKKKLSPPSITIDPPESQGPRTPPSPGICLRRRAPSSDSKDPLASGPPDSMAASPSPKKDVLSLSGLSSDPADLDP
T3 sequence (Q8BLA8 whole entry): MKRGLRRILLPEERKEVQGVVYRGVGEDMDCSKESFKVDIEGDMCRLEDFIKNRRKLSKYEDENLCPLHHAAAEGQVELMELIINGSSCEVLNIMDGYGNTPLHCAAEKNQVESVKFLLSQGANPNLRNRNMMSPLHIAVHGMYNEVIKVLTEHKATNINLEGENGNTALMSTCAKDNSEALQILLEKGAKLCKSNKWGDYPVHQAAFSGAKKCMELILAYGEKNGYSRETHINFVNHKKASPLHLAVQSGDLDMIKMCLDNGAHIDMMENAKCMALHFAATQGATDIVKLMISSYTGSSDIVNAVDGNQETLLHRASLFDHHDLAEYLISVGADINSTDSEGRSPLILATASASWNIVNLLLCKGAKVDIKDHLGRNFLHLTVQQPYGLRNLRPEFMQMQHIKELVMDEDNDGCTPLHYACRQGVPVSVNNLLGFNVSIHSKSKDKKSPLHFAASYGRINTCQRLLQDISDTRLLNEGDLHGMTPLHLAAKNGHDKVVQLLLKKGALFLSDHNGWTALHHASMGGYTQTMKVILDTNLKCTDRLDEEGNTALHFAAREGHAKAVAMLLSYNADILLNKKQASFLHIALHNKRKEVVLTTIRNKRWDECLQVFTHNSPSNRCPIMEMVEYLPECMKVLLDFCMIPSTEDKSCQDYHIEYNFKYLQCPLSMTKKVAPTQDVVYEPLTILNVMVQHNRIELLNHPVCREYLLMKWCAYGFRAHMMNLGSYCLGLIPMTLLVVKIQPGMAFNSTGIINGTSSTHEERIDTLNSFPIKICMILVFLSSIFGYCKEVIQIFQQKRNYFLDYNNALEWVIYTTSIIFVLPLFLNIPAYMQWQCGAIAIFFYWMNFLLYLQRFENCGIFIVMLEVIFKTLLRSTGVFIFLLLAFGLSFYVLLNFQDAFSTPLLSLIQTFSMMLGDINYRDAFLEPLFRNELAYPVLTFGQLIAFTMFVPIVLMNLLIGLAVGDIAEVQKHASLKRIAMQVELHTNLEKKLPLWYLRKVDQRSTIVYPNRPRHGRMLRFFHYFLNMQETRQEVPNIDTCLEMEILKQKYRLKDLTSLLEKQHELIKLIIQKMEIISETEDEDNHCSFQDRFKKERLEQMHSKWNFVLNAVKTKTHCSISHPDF

Turning to `CCCCC/C=C\C/C=C\C/C=C\C/C=C\CCCC(=O)O` [AA, ω6-arachidonic acid], the inhibition at 10 µM in assay [1] turned out to be 81 ± 4%. As for `CCCCC/C=C\C/C=C\C/C=C\C/C=C\CCCC(=O)O` [AA, arachidonic acid], the EC50 in assay [2] came to 13 ± 4 µM. Besides, the Emax at 100 µM in assay [3] came out at 81 ± 4%.

Consider `O=C/C=C/c1ccccc1` [CA, Cinnamaldehyde], for which the EC50 in assay [4] worked out at 11 ± 2 µM.

As for `CCCCC/C=C\C/C=C\C/C=C\C/C=C\CCCCCC(=O)O` [adrenic acid], the inhibition at 10 µM in assay [1] worked out at 64 ± 8%. As to `CCCCC/C=C\C/C=C\C/C=C\C/C=C\CCCC(=O)NCCO` [AEA, anandamide], the activation at 30 µM in assay [5] stood at 227 ± 42%.

As for `CCCCC/C=C\C/C=C\C/C=C\C/C=C\CCCC(=O)OC` [AA-ME, Arachidonic acid methyl ester], in assay [6], the activation at 30 µM was determined as 302 ± 53%.

Take `CCCCC/C=C\C/C=C\C/C=C\C/C=C\CCCC(=O)N[C@@H](Cc1ccc(O)cc1)C(=O)O` [NA-Tyr, N-arachidonoyl tyrosine]: the activation at 30 µM in assay [7] is 172 ± 20%.

Source of the values: publication PMC3913255, “Ligand determinants of fatty acid activation of the pronociceptive ion channel TRPA1” (PeerJ, 2014).
